Results published in US20220305000A1 (Cellworks Group Inc., priority 2021, published 2022).
Read-outs that look alike come from different tables or passages of the source.

Assays:
[1] = in vivo; cited from earlier work
[2] = cited from earlier work
[3] = test system: Jakafi resistant JAK2 V617F harboring BaF3 cell-line; settings: metformin 0.25 mM, 0.5 mM, 1 mM, 5 mM and 10 mM
Procedure: Relative growth of cells was assessed using MTT assay.
Viable cells % was assessed using MTT assay.
Viable cells % was assessed using MTT assay (FIG. 7a).

[4] = test system: patients with JAK2 aberration, Chromosome 8 / Chromosome 9 aberration; assay: Analysis of Ruxolitinib non-responder cases in JAK2 aberration segment (efficacy score, chromosome 8/9 genes)
Text: Next, screening was done for all patient's resistant to Ruxolitinib (JAKAFI®) but sensitive to the drug combination of CQ+M+S.

[5] = in vivo, cited from earlier work
[6] = test system: MPN Cell Lines (JAK2 and non JAK2 populations); assay: Efficacy of MPN standard of care drugs tested on cell lines; type: cell-based; settings: for sensitive in % of JAK2 Cell line populations: JAK2 cell lines; for resistance in % of non JAK2 population: non JAK2 cell lines
Text: (§1) Efficacy comparison study of standard of care drugs in MPN Cell Lines and Patients is provided hereunder: […]

[7] = test system: MPN patients (JAK2 and non JAK2 populations); assay: Efficacy of standard of care drugs on patient cohort; settings: for sensitive in % of JAK2 patient populations: JAK2 patients; for resistance in % of non JAK2 patient's population: non JAK2 patients
Text: as §1

[8] = after meal, chloroquine 200 mg morning, metformin 1250 mg morning and evening, rosuvastatin 20 mg evening

**Q.** For `CN(C)C(=N)N=C(N)N` [Metformin, metformin], which “Diarrhoea, All Grades” value [1] is on record?
**A.** 53%

**Q.** And the “Headache, All Grades” value [1]?
**A.** 5.7%

**Q.** And the “Nausea, All Grades” value [1]?
**A.** 25.5%

**Q.** What about the “grade ¾ toxicity” value [1] of the same molecule?
**A.** rarely reported

**Q.** What about the “Peak Concentration at Dosage” value ([2]; in vivo) of the same molecule?
**A.** 5.8 µM

**Q.** And the “cell viability, viable cells % (MTT)” value [3]?
**A.** steady decrease in cell viability

**Q.** And the Response ([4]; Gene TGFBR1, Chromosome 9, Trisomy 9)?
**A.** Inclusion

**Q.** What about the “MTD (maximum tolerated dose)” value [5] of the same molecule?
**A.** 2500 mg/day

**Q.** What about the “MTD (maximum tolerated dose)” value ([5]; listed as metformin) of the same molecule?
**A.** about 2500 mg/day

**Q.** Which “Headache, All Grades” value [1] does the source give for `CC(C)c1nc(N(C)S(C)(=O)=O)nc(-c2ccc(F)cc2)c1/C=C/[C@@H](O)C[C@@H](O)CC(=O)O` [Rosuvastatin, rosuvastatin] here?
**A.** 8.5%

**Q.** And the “Nausea, All Grades” value [1]?
**A.** 6.3%

**Q.** And the “Peak Concentration at Dosage” value [2, 8]?
**A.** 0.09 µM

**Q.** What about the “MTD (maximum tolerated dose)” value [5] of the same molecule?
**A.** 60 mg/day

**Q.** And the “MTD (maximum tolerated dose)” value ([5]; listed as rosuvastatin)?
**A.** about 60 mg/day

**Q.** What does the source list for `Nc1ncn([C@@H]2O[C@H](CO)[C@@H](O)[C@H]2O)c(=O)n1` [Azacytidine]?
**A.** sensitive in % of JAK2 Cell line populations [6]: 50%; resistance in % of non JAK2 population [6]: 50%; sensitive in % of JAK2 patient populations [7]: 34.16%; resistance in % of non JAK2 patient's population [7]: 74%

**Q.** For `Nc1ncn([C@H]2C[C@H](O)[C@@H](CO)O2)c(=O)n1` [Decitabine], which “sensitive in % of JAK2 Cell line populations” value [6] is on record?
**A.** 50%

**Q.** What about the “resistance in % of non JAK2 population” value [6] of the same molecule?
**A.** 50%

**Q.** And the “sensitive in % of JAK2 patient populations” value [7]?
**A.** 34.16%

**Q.** What about the “resistance in % of non JAK2 patient's population” value [7] of the same molecule?
**A.** 74%

**Q.** With `Cc1ccc(NC(=O)c2ccc(CN3CCN(C)CC3)cc2)cc1Nc1nccc(-c2cccnc2)n1` [Imatinib] as the molecule, how does the “sensitive in % of JAK2 Cell line populations” value [6] read?
**A.** 0%

**Q.** What about the “resistance in % of non JAK2 population” value [6] of the same molecule?
**A.** 83.33%

**Q.** And the “sensitive in % of JAK2 patient populations” value [7]?
**A.** 0.5%

**Q.** What about the “resistance in % of non JAK2 patient's population” value [7] of the same molecule?
**A.** 100%

**Q.** For `CCN(CC)CCCC(C)Nc1ccnc2cc(Cl)ccc12` (stereo not shown) [Chloroquine, chloroquine], which “grade ¾ toxicity” value [1] is on record?
**A.** rarely reported

**Q.** And the “Peak Concentration at Dosage” value [2, 8]?
**A.** 1.18 µM

**Q.** What about the t½ ([2]; in vivo) of the same molecule?
**A.** 20 to 60 days

**Q.** What about the Response ([4]; Gene MCL1, Chromosome 8, Trisomy 8) of the same molecule?
**A.** Inclusion

**Q.** What about the “MTD (maximum tolerated dose)” value [5] of the same molecule?
**A.** 600 mg/day

**Q.** And the “MTD (maximum tolerated dose)” value ([5]; listed as chloroquine)?
**A.** about 600 mg/day

**Q.** Which “sensitive in % of JAK2 Cell line populations” value [6] does the source give for `NC(=O)NO` [Hydroxyurea] here?
**A.** 0%

**Q.** And the “resistance in % of non JAK2 population” value [6]?
**A.** 100%

**Q.** What about the “sensitive in % of JAK2 patient populations” value [7] of the same molecule?
**A.** 1%

**Q.** What about the “resistance in % of non JAK2 patient's population” value [7] of the same molecule?
**A.** 100%

**Q.** Which “sensitive in % of JAK2 Cell line populations” value [6] does the source give for `N#CC[C@H](C1CCCC1)n1cc(-c2ncnc3[nH]ccc23)cn1` [Ruxolitinib, ruxolitinib] here?
**A.** 75%

**Q.** And the “resistance in % of non JAK2 population” value [6]?
**A.** 83.33%

**Q.** And the “Anemia, All Grades” value [1]?
**A.** 96.1%

**Q.** And the “Headache, All Grades” value [1]?
**A.** 14.8%

**Q.** What about the “Neutropenia, All Grades” value [1] of the same molecule?
**A.** 18.7%

**Q.** What about the “Thrombocytopenia, All Grades” value [1] of the same molecule?
**A.** 69.7%

**Q.** What about the “patients with Anemia of grade 3 or more” value [1] of the same molecule?
**A.** 40-45%

**Q.** What about the “sensitive in % of JAK2 patient populations” value [7] of the same molecule?
**A.** 81.18%

**Q.** What about the “resistance in % of non JAK2 patient's population” value [7] of the same molecule?
**A.** 87.81%

**Q.** With `O=C1CCC(N2C(=O)c3ccccc3C2=O)C(=O)N1` (stereo not shown) [Thalidomide] as the molecule, how does the “sensitive in % of JAK2 Cell line populations” value [6] read?
**A.** 75%

**Q.** What about the “resistance in % of non JAK2 population” value [6] of the same molecule?
**A.** 16.67%

**Q.** What about the “sensitive in % of JAK2 patient populations” value [7] of the same molecule?
**A.** 33.17%

**Q.** What about the “resistance in % of non JAK2 patient's population” value [7] of the same molecule?
**A.** 75.61%
